Test results published in PubChem BioAssay AID248 (DTP/NCI, 2004).
Toxic doses and inconclusive results are not listed. Cut-off read from the data, not from the text of the source: active = T/C of 150% or more; inactive = T/C below 125%.

Tested on: L1210 leukemia ip in BDF1 mice, survival T/C
Assay: NCI In Vivo Anticancer Drug Screen. Data for tumor model L1210 Leukemia (intraperitoneal) in B6D2F1 (BDF1) mice
Conditions: endpoint: mean survival time, higher = longer survival
In short: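 Tumor cells were implanted, animals were treated, and survival was followed. The result divides the treated measurement by the vehicle-control measurement.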

[1] = dose: 100.0 mg/kg/injection, schedule: Q01DX001 (ip), vehicle: saline
[2] = dose: 100.0 mg/kg/injection, schedule: Q04DX003 (ip), vehicle: saline
[3] = dose: 200.0 mg/kg/injection, schedule: Q01DX001 (ip), vehicle: saline
[4] = dose: 200.0 mg/kg/injection, schedule: Q04DX003 (ip), vehicle: Klucel (hydroxypropylcellulose) (HPC)
[5] = dose: 200.0 mg/kg/injection, schedule: Q04DX003 (ip), vehicle: saline
[6] = dose: 400.0 mg/kg/injection, schedule: Q01DX001 (ip), vehicle: saline
[7] = dose: 100.0 mg/kg/injection, schedule: Q04DX003 (ip), vehicle: saline with Tween-80
[8] = dose: 200.0 mg/kg/injection, schedule: Q04DX003 (ip), vehicle: saline with Tween-80
[9] = dose: 100.0 mg/kg/injection, schedule: Q01DX009 (ip), vehicle: Klucel (hydroxypropylcellulose) (HPC)
[10] = dose: 100.0 mg/kg/injection, schedule: Q04DX003 (ip), vehicle: Klucel (hydroxypropylcellulose) (HPC)
[11] = dose: 400.0 mg/kg/injection, schedule: Q04DX003 (ip), vehicle: Klucel (hydroxypropylcellulose) (HPC)
[12] = dose: 400.0 mg/kg/injection, schedule: Q04DX003 (ip), vehicle: saline

Measured: T/C

CC(NC(=O)OCc1ccccc1)C(=O)Oc1cc(Cl)c(Cl)cc1Cl (stereo not drawn)
inactive: [1] 92 % of control | dose: 100.0 mg/kg/injection, schedule: Q01DX009 (ip), vehicle: saline 95 % of control | [2] 91 % of control | [3] 97 % of control | dose: 200.0 mg/kg/injection, schedule: Q01DX009 (ip), vehicle: saline 93 % of control | [4] 87 % of control | [5] 91 % of control | [6] 92 % of control | dose: 400.0 mg/kg/injection, schedule: Q01DX009 (ip), vehicle: saline 92 % of control

O=[N+]([O-])c1ccc2c(c1)S(=O)c1ccccc1-2 (stereo not drawn)
inactive: [7] 109 % of control | [8] 94 % of control

Nc1nc2c(=O)[nH]cnc2n1C1OC(CO)C(O)C1O (stereo not drawn)
inactive: dose: 5.0 mg/kg/injection, schedule: Q01DX001 (ip), vehicle: saline 102 % of control | dose: 10.0 mg/kg/injection, schedule: Q01DX001 (ip), vehicle: saline 104 % of control | dose: 20.0 mg/kg/injection, schedule: Q01DX001 (ip), vehicle: saline 102 % of control

Cc1cc(C(C)(C)C)c(O)c(C(C)(C)C)c1
inactive: dose: 25.0 mg/kg/injection, schedule: Q01DX009 (ip), vehicle: Klucel (hydroxypropylcellulose) (HPC) 110 % of control | dose: 50.0 mg/kg/injection, schedule: Q01DX009 (ip), vehicle: Klucel (hydroxypropylcellulose) (HPC) 103 % of control | [9] 113 % of control | [10] 103 % of control | [4] 114 % of control | [11] 95 % of control

O=C1CC(OC(=O)c2ccccc2)(c2ccccc2)OC(c2ccccc2)=C1c1ccccc1 (stereo not drawn)
inactive: [1] 101 % of control | [10] 97 % of control | [3] 104 % of control | [4] 100 % of control | [6] 96 % of control | [11] 100 % of control

O=P(c1ccccc1)(c1ccccc1)c1ccccc1
inactive: dose: 50.0 mg/kg/injection, schedule: Q01DX001 (ip), vehicle: saline 102 % of control | [1] 98 % of control | [3] 98 % of control

C=CCNC(=S)Nc1cccc2ccccc12
inactive: dose: 12.5 mg/kg/injection, schedule: Q04DX003 (ip), vehicle: Klucel (hydroxypropylcellulose) (HPC) 105 % of control | dose: 25.0 mg/kg/injection, schedule: Q04DX003 (ip), vehicle: Klucel (hydroxypropylcellulose) (HPC) 96 % of control | dose: 50.0 mg/kg/injection, schedule: Q04DX003 (ip), vehicle: Klucel (hydroxypropylcellulose) (HPC) 105 % of control

C/C=C/c1cc(OC)cc(C2(O)OC(=O)c3c(OC)cccc32)c1OC (stereo not drawn)
inactive: [7] 105 % of control | [8] 94 % of control | dose: 400.0 mg/kg/injection, schedule: Q04DX003 (ip), vehicle: saline with Tween-80 100 % of control

CCC(CO)NCc1cc(=O)[nH]c(=O)[nH]1 (stereo not drawn)
inactive: [2] 96 % of control | [5] 96 % of control | [12] 102 % of control

Cc1nc(N)[nH]c(=O)c1CCCNCc1ccco1
inactive: [1] 100 % of control | [3] 103 % of control | [6] 99 % of control

CNC(=O)Nc1cccc(OC(=O)NC(C)(C)C)c1
inactive: dose: 100.0 mg/kg/injection, schedule: Q01DX009 (ip), vehicle: saline with Tween-80 91 % of control | dose: 200.0 mg/kg/injection, schedule: Q01DX009 (ip), vehicle: saline with Tween-80 93 % of control

CCCCC(CC)COC(=O)CCC(CCC(=O)OCC(CC)CCCC)C(=O)OCC(CC)CCCC (stereo not drawn)
inactive: dose: 100.0 mg/kg/injection, schedule: Q04DX003 (ip), vehicle: saline sonified 98 % of control | dose: 200.0 mg/kg/injection, schedule: Q04DX003 (ip), vehicle: saline sonified 104 % of control | dose: 400.0 mg/kg/injection, schedule: Q04DX003 (ip), vehicle: saline sonified 96 % of control

NC(=O)Cn1cnc2c(=S)nc[nH]c21
inactive: dose: 6.25 mg/kg/injection, schedule: Q01DX009 (ip), vehicle: saline with Tween-80 109 % of control | dose: 12.5 mg/kg/injection, schedule: Q01DX009 (ip), vehicle: saline with Tween-80 104 % of control | dose: 12.5 mg/kg/injection, schedule: Q04DX003 (ip), vehicle: saline with Tween-80 104 % of control | dose: 25.0 mg/kg/injection, schedule: Q01DX009 (ip), vehicle: saline with Tween-80 101 % of control | dose: 25.0 mg/kg/injection, schedule: Q04DX003 (ip), vehicle: saline with Tween-80 102 % of control

N#CC1CN(c2ccccc2)CC1=O (stereo not drawn)
inactive: [9] 97 % of control | dose: 200.0 mg/kg/injection, schedule: Q01DX009 (ip), vehicle: Klucel (hydroxypropylcellulose) (HPC) 96 % of control

CCCCOc1ccc(S(=O)(=O)c2ccc(OCCCC)c([N+](=O)[O-])c2)cc1[N+](=O)[O-]
inactive: dose: 75.0 mg/kg/injection, schedule: Q04DX002 (ip), vehicle: gum acacia 97 % of control | dose: 150.0 mg/kg/injection, schedule: Q04DX002 (ip), vehicle: gum acacia 97 % of control | dose: 300.0 mg/kg/injection, schedule: Q04DX002 (ip), vehicle: gum acacia 97 % of control

COc1ccc(C(C#N)CC(=O)c2ccc(OCc3ccccc3)c(OC)c2)cc1OC (stereo not drawn)
inactive: dose: 75.0 mg/kg/injection, schedule: Q01DX009 (ip), vehicle: other 88 % of control | [2] 90 % of control | dose: 150.0 mg/kg/injection, schedule: Q01DX009 (ip), vehicle: other 90 % of control | [5] 96 % of control | dose: 300.0 mg/kg/injection, schedule: Q01DX009 (ip), vehicle: other 95 % of control | [12] 94 % of control | dose: 600.0 mg/kg/injection, schedule: Q01DX009 (ip), vehicle: other 102 % of control
